Patent US20170131285A1, “METHODS AND COMPOSITIONS FOR DIAGNOSING, MONITORING AND TREATING CANCER” (INSERM (Institut National de la Sante et de la Recherche …, priority 2014, published 2017)
Where no end group is shown, it is not given here.

Key:
HSP70/TLR2 association = target: T1, HSP70/TLR2 association (Homo sapiens, UniProt P0DMV8); test: In vitro co-immunoprecipitation of TLR2 followed by HSP70 immunoblotting; format: binding; settings: A8 from 0.3 μM to 1.8 μM, HSP70 immunoblot
T1 construct: HA; made in house; host or cells: cell-free: TNT Quick Coupled Transcription/Translation System (Promega)
Description: (§1) FIG. 3: A8 blocks HSP70/TLR2 association. (A) Immunoprecipitation of TLR2 in the presence of increasing concentrations of A8 (from 0.3 μM to 1.8 μM) was followed by HSP70 immunoblotting. IP control, no relevant IgG antibody. (B) Denatured luciferase (D) was incubated in the absence or presence of human HSP70 and, when indicated, increasing concentrations of A8 (C1=5 μM; C2=15 μM; C3=25 μM and C4=50 μM) for 1 hour at 25° C. Following incubation, the luciferase substrate D-luciferin was added and within 10 minutes the total light units emitted were collected for 10 seconds at 560 nm using a Wallac (Victor 3) spectrophotometer. *, p<0.05. (C) Biolayer interferometry to determine association and dissociation curves of HSP70 (concentration range from 2.5 μM to 156 nM) with biotinylated TRL2 immobilized on streptavidin sensor tips. (D) Association and dissociation curves of HSP70 (concentration range from 50 nM to 1.28 nM) with biotinylated A8 immobilized on streptavidin sensor tips. Curves in C and D represent mean values of triplicate measurements for each concentration.
For the in vitro coimmunoprecipitation, we used A8 or TLR2 recombinants proteins. […] The immunoprecipitated proteins were analysed by western blot.
For the in vitro co-immunoprecipitation, we used A8 or TLR2 recombinants proteins. […] The immunoprecipitated proteins were analyzed by western blot.

human HSP70/HSP40 = target: T2, human HSP70/HSP40 (Homo sapiens, UniProt P0DMV8); test: Refolding luciferase assay (HSP70 chaperone activity); format: biochemical; settings: A8 5 μM to 50 μM, 1 hour at 25° C., purified recombinant proteins
T2 construct: purchased StressGen (EnzoLife)
Description: as §1, with “concentration. […]” for “concentration.”

MSC2 cells = test: MSC2 proliferation (RTCA-DP, BrdU); format: cell-based; settings: exosomes from B16F10, A8 16 μM and 32 μM
Description: (§2) FIG. 9: TDE and A8 effects on MSC2 and MDSC proliferation. A) Dynamic monitoring of in vitro MSC2 cell proliferation using the RTCA-DP system (Real-Time Cell Analyzer). MSC2 were incubated or not for 11 h with exosomes (from B16F10) in the absence or presence of A8 (16 μM and 32 μM). Cell index values were measured every 30 seconds (n=3). B) MSC2 were incubated or not for 24 h with exosomes (from B16F10) in the absence or presence of A8 (16 μM). Then, cells were labelled with BrdU and incorporation was determined by flow cytometry (n=3). C) MDSC were treated with exosomes (from B16F10) in the absence or presence of A8 ([…]) for 24 hours and then analyzed for proliferation by Cellometer-mini. *p<0.05.
(§3) MSC2 cells proliferation were analyzed by to different techniques. First, MSC2 (1·10^4) were seeded onto 16-well plates with medium containing 10% FBS and incubated for 34 hours. […] Into each well of the micro-electronic sensor transendothelial electric resistance (TER) was measured by xCELLigence real time cell analyzer DP system (Roche). TER was measured every 30 s and then normalized to the initial value. […] MDSC proliferation was analyzed by cell counting. MDSC cells (1·10^6) from spleen of naive mice (see MDSC isolation section) were treated or not with exosomes (from B16F10) in the absence or presence of A8 (16 μM) for 24 hours and then analyzed for viability by Cellometer-mini (Ozyme).

primary MDSC = test: Primary MDSC proliferation (Cellometer-mini); format: cell-based, mouse; settings: exosomes from B16F10, A8 16 μM, 24 hours
Description: as §2, §3

T1 sequence (P0DMV8 whole entry): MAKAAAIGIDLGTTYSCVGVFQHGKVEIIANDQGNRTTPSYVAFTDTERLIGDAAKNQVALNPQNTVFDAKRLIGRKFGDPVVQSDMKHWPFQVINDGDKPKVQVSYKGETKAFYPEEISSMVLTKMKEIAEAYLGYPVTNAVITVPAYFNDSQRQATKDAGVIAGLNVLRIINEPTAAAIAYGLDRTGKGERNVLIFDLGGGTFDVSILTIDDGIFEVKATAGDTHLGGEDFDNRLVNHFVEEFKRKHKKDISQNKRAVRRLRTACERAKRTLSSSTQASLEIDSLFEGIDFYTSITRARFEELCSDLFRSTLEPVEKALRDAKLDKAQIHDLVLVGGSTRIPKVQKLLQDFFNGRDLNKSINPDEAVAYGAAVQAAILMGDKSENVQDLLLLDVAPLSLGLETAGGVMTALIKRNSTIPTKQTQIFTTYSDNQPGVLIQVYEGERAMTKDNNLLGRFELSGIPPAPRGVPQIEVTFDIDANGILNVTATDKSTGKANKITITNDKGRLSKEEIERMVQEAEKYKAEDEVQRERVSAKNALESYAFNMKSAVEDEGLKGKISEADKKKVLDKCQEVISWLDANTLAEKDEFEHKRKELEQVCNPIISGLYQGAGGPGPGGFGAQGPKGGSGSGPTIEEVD
T2 sequence (P0DMV8 whole entry): as above

HSP70 chaperone activity (luciferase refolding) (human HSP70/HSP40): blocked, in a dose-dependent manner
Sequence: SPWPRPTY [Aptamer A8, SPWPRPTY]
HSP70 association to TLR2 (HSP70/TLR2 association): inhibited by A8 in a dose-dependent manner
TDE-induced proliferation of MSC2 (MSC2 cells): blocked
TDE-induced proliferation of primary MDSC (primary MDSC): blocked
